Test results: patent publication US5885992A, “Triterpene derivative and medicinal composition” (Nippon Shinyaku Company, Limited, priority 1994, dated 1999)

Assays:
mesangial cells [1] = assay: Effect on anti-Thy-1 antibody nephritis in rats (number of mesangial cells per glomerulus); type: in vivo, rat; conditions: 100 mg/kg p.o. once a day for 7 days, n=5, mean ± standard error, **P < 0.01, controls (distilled water): 59.5 ± 3.5 (No. 1), 61.8 ± 2.2 (No. 2), 54.8 ± 2.1 (No. 9), intact animal 43
Description: Anti-Thy-1 antibody-induced nephritis is a model of glomerulonephritis constructed by utilizing the reaction between the Thy-1 antigen occurring as a membrane protein of mesangial cells and the antibody to the antigen. In this model, injuries to mesangial cells and lesions associated with mesangial cell proliferation are found.
Preparation of anti-Thy-1 antibody
Preparation of the antibody was carried out in accordance with the method of Ishizaki et al. referred to above. Thus, an adjuvant suspension of rat thymocytes was prepared and subcutaneously administered to rabbits for immunization. After two booster doses, the blood was collected and the serum separated was subjected to inactivation and absorption to provide an antiserum (anti-Thy-1 antibody).
A predetermined amount of the antiserum was injected intravenously from the tail vein of rats to induce nephritis. Starting the following day after injection, a suspension of the test drug was administered orally once a day for 7 days. On day 8 following the beginning of administration, the animals were sacrificed and the kidneys were removed. The kidney was fixed in 10% phosphate-buffered formalin and, in the routine manner, paraffin sections were prepared and stained with periodic acid-schiff stain for microscopy. For histopathological evaluation, the number of cells in the glomeruli (mainly mesangial cells) in each tissue preparation was counted under a light microscope. Statistical analysis was performed by unpaired t-test.

MRL/lpr mice = assay: Effect on nephritis in MRL/lpr mice: incidence of proteinuria; type: in vivo, mouse; conditions: 10 weeks; for Number of animals with proteinuria, grade 1+ (30-100 mg/dl) / Number of animals with proteinuria, grade - (negative): control 0 of 12; for Number of animals with proteinuria, grade 3+ (300-1000 mg/dl): control 1 of 12; for Number of animals with proteinuria, grade 2+ (100-300 mg/dl): control 4 of 12; for Number of animals with proteinuria, grade 4+ (>1000 mg/dl): control 7 of 12, *P < 0.05
Description: (§1) Effect on nephritis in MRL/lpr mice
(§2) The MRL/lpr mouse is a model of lupus nephritis in mice which spontaneously and secondarily develop proliferative glomerulonephritis due to autoimmune disease. Using this nephritis model, a 10-week long-term oral administration experiment with the test drugs was performed.
(§3) MRL/lpr mice purchased from Jackson Laboratory and maintained in Nippon Shinyaku Co., Ltd. were used.
(§4) A suspension of each test drug was administered orally once a day on 6 days per week from the age 8 weeks for 10 weeks. During the administration period, the semi-quantitative test for urinary protein (regent strips) was performed. At the end of the administration period, the animals were sacrificed and the kidneys were removed. The kidney was fixed in 10% phosphate-buffered formalin and, in the routine manner, paraffin sections were prepared and stained with periodic acid-Schiff stain for microscopy. For histopathological evaluation, the glomerular lesions in each tissue preparation were observed by light microscopy and graded according to the method of Berden (J. Immunology, 130, 1699-1705, 1983) and the incidence (%) of each grade was calculated for each group. Statistical analysis was performed by Mann Whitney's rank-sum test.

glomeruli = assay: Effect on nephritis in MRL/lpr mice: histopathological findings of glomeruli; type: in vivo, mouse; conditions: 10 weeks; for Incidence of glomerular lesions, grade - (no remarkable change): control 1; for Incidence of glomerular lesions, grade 4+ (extremely marked change): control 8, **P < 0.01; for Incidence of glomerular lesions, grade 1+ (slight change): control 14; for Incidence of glomerular lesions, grade 3+ (marked change): control 25; for Incidence of glomerular lesions, grade 2+ (moderate change): control 52
Description: as §1, §2, §3, §4

mice = assay: Acute toxicity; type: in vivo, mouse; conditions: 2 g/kg p.o.; for Acute toxicity: abnormal findings: general condition up to 1 week; for Acute toxicity: death: observed up to 1 week
Text: Compound No. 1 and the compound No. 9 were examined.

mesangial cells [2] = assay: Inhibitory effect on mesangial cell proliferation in vitro; type: cell-based; conditions: Rattus norvegicus, 10 μg/ml, 72 hours, LPS-stimulated macrophage culture supernatant, crystal violet, relative to control, read-out: Inhibition rate of mesangial cell proliferation in vitro
Description: Inhibitory effect on mesangial cell proliferation in vitro
Glomeruli were isolated from the rat kidney by the sieving method. Mesangial cells were obtained from isolated these glomeruli which were maintained in culture. The mesangial cells were seeded on the plate and, after 24 hours, an LPS (lipopolysaccharide)-stimulated macrophage culture supernatant (a solution containing growth factor) and the test drug were added and the plate was incubated for 72 hours. The mesangial cells were fixed and stained with crystal violet and the absorbance was measured. The inhibitory activity of the mesangial cell proliferation of the test compound was evaluated in relative inhibition rate (%) in comparison with the absorbance of the control obtained under the same culture conditions.

Compound: CC1(C)CC[C@]2(C(=O)O)CC[C@]3(C)C(=CC[C@@H]4[C@@]5(C)CC[C@H](O)[C@@](C)(CO)[C@@H]5CC[C@]43C)[C@@H]2C1 [Compound No. 1, 3β,23-dihydroxyolean-12-en-28-oic acid]
- Number of mesangial cells per glomerulus (mesangial cells [1]): 48.2 ± 1.6
- Number of animals with proteinuria, grade 1+ (30-100 mg/dl) (MRL/lpr mice; 10 mg/kg p.o., n=13): 7
- Number of animals with proteinuria, grade - (negative) (MRL/lpr mice; 10 mg/kg p.o., n=13): 0
- Number of animals with proteinuria, grade 3+ (300-1000 mg/dl) (MRL/lpr mice; 10 mg/kg p.o., n=13): 1
- Number of animals with proteinuria, grade 2+ (100-300 mg/dl) (MRL/lpr mice; 10 mg/kg p.o., n=13): 2
- Number of animals with proteinuria, grade 4+ (>1000 mg/dl) (MRL/lpr mice; 10 mg/kg p.o., n=13): 3
- Number of animals with proteinuria, grade 1+ (30-100 mg/dl) (MRL/lpr mice; 30 mg/kg p.o., n=14): 4
- Number of animals with proteinuria, grade - (negative) (MRL/lpr mice; 30 mg/kg p.o., n=14): 3
- Number of animals with proteinuria, grade 3+ (300-1000 mg/dl) (MRL/lpr mice; 30 mg/kg p.o., n=14): 5
- Number of animals with proteinuria, grade 2+ (100-300 mg/dl) (MRL/lpr mice; 30 mg/kg p.o., n=14): 0
- Number of animals with proteinuria, grade 4+ (>1000 mg/dl) (MRL/lpr mice; 30 mg/kg p.o., n=14): 2
- Incidence of glomerular lesions, grade - (no remarkable change) (glomeruli; 10 mg/kg p.o.): 3%
- Incidence of glomerular lesions, grade 4+ (extremely marked change) (glomeruli; 10 mg/kg p.o.): 2%
- Incidence of glomerular lesions, grade 1+ (slight change) (glomeruli; 10 mg/kg p.o.): 29%
- Incidence of glomerular lesions, grade 3+ (marked change) (glomeruli; 10 mg/kg p.o.): 9%
- Incidence of glomerular lesions, grade 2+ (moderate change) (glomeruli; 10 mg/kg p.o.): 57%
- Incidence of glomerular lesions, grade - (no remarkable change) (glomeruli; 30 mg/kg p.o.): 3%
- Incidence of glomerular lesions, grade 4+ (extremely marked change) (glomeruli; 30 mg/kg p.o.): 0%
- Incidence of glomerular lesions, grade 1+ (slight change) (glomeruli; 30 mg/kg p.o.): 25%
- Incidence of glomerular lesions, grade 3+ (marked change) (glomeruli; 30 mg/kg p.o.): 9%
- Incidence of glomerular lesions, grade 2+ (moderate change) (glomeruli; 30 mg/kg p.o.): 63%
- Acute toxicity: abnormal findings (mice): nor was there any abnormal findings
- Acute toxicity: death (mice): no death was encountered

Compound: COCCNC(=O)[C@]12CCC(C)(C)C[C@H]1C1=CC[C@@H]3[C@@]4(C)CC[C@H](O)[C@@](C)(CO)[C@@H]4CC[C@@]3(C)[C@]1(C)CC2 [Compound No. 9, N-(2-methoxyethyl)-3β,23(4α)-dihydroxyolean-12-en-28-amide]
- Number of mesangial cells per glomerulus (mesangial cells [1]): 45.8 ± 0.7
- inhibition at 10 µg/mL (mesangial cells [2]): 43.3%
- Acute toxicity: abnormal findings (mice): nor was there any abnormal findings
- Acute toxicity: death (mice): no death was encountered

Compound: CC(=O)OCCOC(=O)[C@]12CCC(C)(C)C[C@H]1C1=CC[C@@H]3[C@@]4(C)CC[C@H](O)[C@@](C)(CO)[C@@H]4CC[C@@]3(C)[C@]1(C)CC2 [Compound No. 2, 2-Acetoxyethyl 3β,23(4α)-dihydroxyolean-12-en-28-oate]
- Number of mesangial cells per glomerulus (mesangial cells [1]): 50.9 ± 1.3
- inhibition at 10 µg/mL (mesangial cells [2]): 57.9%
